Source: PubChem BioAssay AID1421 (Emory University Molecular Libraries Screening Center, 2008)
Active and inactive are the calls of the source. The rule behind the calls is not given here.

Biological target: Prostaglandin E2 receptor EP2 subtype (Homo sapiens) (UniProt P43116)
Experiment: compounds shifting PGE2 potency at EP2 – cell-based, human EP2, PGE2 EC50 shift, dose response (AID 1421)
Settings: EP2-expressing cells, PGE2 EC50 shift by compound

Prostaglandin E2 receptor EP2 subtype (Homo sapiens), sequence (P43116 whole entry, looked up): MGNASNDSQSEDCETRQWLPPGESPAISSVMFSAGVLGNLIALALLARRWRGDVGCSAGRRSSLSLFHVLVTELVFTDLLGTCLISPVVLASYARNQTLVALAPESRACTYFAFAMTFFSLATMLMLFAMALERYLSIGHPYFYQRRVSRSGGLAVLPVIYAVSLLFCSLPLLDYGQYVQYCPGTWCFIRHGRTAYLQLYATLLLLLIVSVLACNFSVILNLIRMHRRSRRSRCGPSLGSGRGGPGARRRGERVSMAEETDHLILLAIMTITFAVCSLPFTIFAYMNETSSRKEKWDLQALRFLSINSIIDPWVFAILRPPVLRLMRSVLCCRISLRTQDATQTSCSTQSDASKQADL

| Structure (SMILES) | outcome |
| --- | --- |
| CC(C)Sc1cc(N2CCOCC2)nc(-c2ccc(Cl)cc2)n1 | active |
| CCSc1cc(N2CCOCC2)nc(-c2ccc(Cl)cc2)n1 | active |
| CC1CCC(C(C)C)C(OC(=O)COC(=O)c2ccc(=O)[nH]c2)C1 (configuration not stated) | active |
| CCOCC(=O)Nc1sc2c(c1C(=O)OCC)CCCC2 | active |

Continued, values first:

| outcome | Structure (SMILES) |
| --- | --- |
| active | Cc1ccc2nc(Nc3ccc4[nH]c(=O)[nH]c4c3)c(-n3nc(C)cc3C)nc2c1 |
| active | Cc1noc(C)c1CSc1nc2ccccc2c(=O)n1-c1ccccc1 |
| active | CC(C)Oc1nc(-c2ccccc2O)nc2ccccc12 |
| active | CCOC(=O)c1cc(C)sc1NC(=O)c1ccc(Cl)s1 |
| active | Cc1ccc(C(=O)Nc2ccccc2N2CCCCC2)cc1[N+](=O)[O-] |
| active | Cc1sc(NC(=O)c2ccccc2F)c(CN2CCCCC2)c1C |
| active | Cc1ccccc1C(=N)c1ccccc1Cc1cccc2ccccc12 |

Same assay, conditions: EP2-expressing cells, PGE2 EC50 shift by compound; measured here: PGE2 EC50 at 6.7 uM compound

| Structure (SMILES) | PGE2 EC50 with compound [nM] |
| --- | --- |
| CC(C)Sc1cc(N2CCOCC2)nc(-c2ccc(Cl)cc2)n1 | 1.02 |
| COc1ccc(C2=NN(C(=O)c3cccs3)C(O)(C(F)(F)F)C2)cc1 (configuration not stated) | 3 |
| O=C(Nc1ccccc1Oc1ccccc1)c1ccccc1F | 1.07 |
| CC(C)c1ccc(OCC(=O)NC(=S)Nc2ccc3c4c(cccc24)CC3)cc1 | 3.13 |
| CCNc1nc(NCC)nc(SCCOc2ccc(C)cc2)n1 | 0.7 |
| C=CCN1C(=O)/C(=C/c2ccc(O)c(OC)c2)S/C1=N/c1nccs1 | 1.27 |
| O=C(OCc1ccc(Cl)cc1)c1ccccc1C(=O)c1ccccc1 | 1.02 |
| CC[C@H](C)C(=O)O[C@H]1C[C@@H](C)C=C2C=C[C@H](C)[C@H](CC[C@@H]3C[C@@H](O)CC(=O)O3)[C@H]21 | 0.97 |
| COc1ccccc1/C=C(/C(=O)OCC(=O)Nc1ccccc1C(C)C)c1ccccc1 | 1.1 |
| COC(=O)c1c(NC(=O)c2ccccc2N(C)S(=O)(=O)c2ccccc2)sc2c1CCCC2 | 1.49 |
| Oc1c(Cl)cc(Cl)cc1Sc1cc(Cl)cc(Cl)c1O | 0.58 |
| CCOc1ccc(-c2nnc3n2N=C(c2ccc(OC)cc2)CS3)cc1 | 0.5 |
| O=C(O)/C=C/c1ccccc1Oc1ccc(Cl)cc1Cl | 1.21 |
| CCOC(=O)c1c(-c2ccc(C)o2)csc1NC(=O)CN1CCCCC1 | 0.73 |
| O=C(CN1CCCCC1)N1c2ccccc2Sc2ccc(C(F)(F)F)cc21 | 1.45 |
| CCSc1cc(N2CCOCC2)nc(-c2ccc(Cl)cc2)n1 | 0.69 |
| COc1ccc2cc(CN(Cc3ccco3)C(c3nnnn3C3CCCCC3)C(C)C)c(=O)[nH]c2c1 (configuration not stated) | 0.76 |
| CC(=O)O[C@H]1CC[C@@]2(C)[C@@H](CC[C@H]3[C@H]2CC(=O)[C@]2(C)[C@@H]3C[C@H]3CC(C)=CC(=O)[C@@H]32)C1 | 1.34 |
| COc1ccc(OC)c(-c2cnc(OC(C)(C)C)nc2OC(C)(C)C)c1 | 1.35 |
| CC1CCC(C(C)C)C(OC(=O)COC(=O)c2ccc(=O)[nH]c2)C1 (configuration not stated) | 1.4 |
| O=C(O)COc1cccc(NC(=O)c2ccccc2)c1 | 2.83 |

| Structure (SMILES) | PGE2 EC50 with compound [nM] |
| --- | --- |
| O=C(c1ccco1)N(CCC(c1ccccc1)c1ccco1)Cc1ccc(F)cc1 (configuration not stated) | 1.11 |
| CC(C)N(CCNC(=O)c1oc(=O)c2ccccc2c1-c1ccccc1)Cc1ccco1 | 1.6 |
| C=CCn1c(=O)c2c3c(sc2n2c(Nc4ccc(OC)cc4)nnc12)CCCC3 | 0.77 |
| COc1cccc2[nH]c3c(N4CCC(C)CC4)ncnc3c12 | 2.38 |
| c1ccc(-c2n[nH]nc2-c2ccccc2)cc1 | 0.9 |
| CCC(=O)Oc1ccc(C(CC)C(CC)c2ccc(OC(=O)CC)cc2)cc1 (configuration not stated) | 0.32 |
| O=C1CCC(C(=O)OCC(=O)N2N=C3/C(=C/c4ccccc4)CCCC3C2c2ccccc2)N1 (configuration not stated) | 1.47 |
| CCCCCCn1c(SCC(C)C)nc2c1c(=O)[nH]c(=O)n2C | 1.08 |
| CCOC(=O)c1c(/N=C/C2C(=O)CCCC2=O)sc2c1CCCC2 | 1.32 |
| O=C(Nc1cc(S(=O)(=O)Nc2ccc(Cl)cc2)ccc1N1CCCCC1)c1ccc(F)cc1Cl | 0.87 |
| O=C(COc1ccc(Br)cc1)Nc1ccc(-c2nnc(-c3ccco3)o2)cc1 | 0.9 |
| O=C(COC(=O)c1ccccc1)Nc1ccccc1Sc1ccccc1 | 0.83 |
| COc1cccc(C(=O)Nc2cccc(OCC(=O)O)c2)c1 | 0.93 |
| CCOP(=O)(OCC)c1nc(-c2ccc(Cl)cc2Cl)oc1N1CCCCC1 | 1.42 |
| CC(C)Oc1ccc(/C=C(/NC(=O)c2ccccc2)C(=O)NCCC(=O)O)cc1 | 0.92 |
| OC1(c2ccc(Cl)cc2)CN(c2ccccc2)C2=[N+]1CCS2 (configuration not stated) | 1.16 |
| CC1CCc2cc(F)cc3c(O)c(C(=O)NCc4ccco4)c(=O)n1c23 (configuration not stated) | 0.56 |
| Nc1ccc(SC(F)(F)F)cc1C(=O)c1ccccc1 | 2.39 |
| CCOCC(=O)Nc1sc2c(c1C(=O)OCC)CCCC2 | 1.18 |
| CC(C)=CCC/C(C)=C/CC/C(C)=C/CSc1ccccc1C(=O)O | 0.69 |

Next, values leading:

| PGE2 EC50 with compound [nM] | Structure (SMILES) |
| --- | --- |
| 0.87 | Cc1cccc(CSc2ncnc3ccccc23)c1 |
| 0.93 | CC(C)CCn1c(N2CCN(c3cccc(Cl)c3)CC2)nc2c1c(=O)[nH]c(=O)n2C |
| 2.69 | Cc1ccc2nc(Nc3ccc4[nH]c(=O)[nH]c4c3)c(-n3nc(C)cc3C)nc2c1 |
| 0.84 | CN=C1CC(SC)=C1c1ccc(C)cc1 |
| 1.06 | Brc1cccc(-c2nnc(SCc3ccon3)n2-c2ccccc2)c1 |
| 2.81 | COc1ccc(N2C(=O)N(Cc3ccc(C)cc3)c3ccccc3S2(=O)=O)cc1 |
| 0.86 | Cc1ccnc(SCC(=O)n2c3c(c4ccccc42)CC(C)CC3)n1 (configuration not stated) |
| 2.48 | C=CCOc1nc(-c2ccncc2)nc2ccccc12 |
| 0.62 | C=CCn1c(SCc2c(C)noc2C)nc2sc(C)c(C)c2c1=O |
| 0.6 | Cc1cc(C)c(C)c(Cn2c(CO)nc3ccccc32)c1C |
| 1.06 | CCOc1ccccc1COC(=O)c1cccc(-n2cnnn2)c1 |
| 2.75 | Cc1cc2ccccc2nc1SCC(=O)NC1CCCCC1 |
| 1.14 | COc1c(Cl)cc(Cl)cc1C(=O)n1nc(C)cc1C |
| 1 | COc1ccc(Cn2c(-c3ccc(OC)cc3)nc3ccccc32)cc1 |
| 2.45 | COC(=O)c1ccc(CSc2ncnc3c2oc2ccccc23)o1 |
| 1.49 | C=CCn1c(SCc2c(C)noc2C)nc2ccccc2c1=O |
| 0.84 | O=c1c2ccccc2c(-c2ccccc2)nn1Cc1c(Cl)cccc1Cl |
| 1.56 | CCOc1nc(C)cc(C)c1S(=O)(=O)c1ccc(Cl)cc1 |
| 1.05 | Cc1ccccc1-n1c(Cn2c(=O)sc3ccccc32)nnc1SCC(=O)N1CCCC1 |
| 1.25 | CCOC(=O)c1c(NC(=O)c2cccnc2)sc(C)c1C |

| PGE2 EC50 with compound [nM] | Structure (SMILES) |
| --- | --- |
| 2.48 | CCOC(=O)c1cnc2ccc(OCC)cc2c1N(C)Cc1ccccc1 |
| 1.08 | CN(C)c1ncc(S(=O)(=O)c2ccc(Cl)cc2)c(-c2ccccc2)n1 |
| 0.64 | Cc1cc(C)c2nc(N3CCCN(C(=O)c4ccco4)CC3)c(C#N)cc2c1 |
| 0.83 | CCn1c2ccccc2c2cc([N+](=O)[O-])ccc21 |
| 0.85 | CCc1nc2c(cnn2-c2ccc(Cl)cc2)c(=O)n1-c1ccc(OC)cc1 |
| 1.42 | C=CCOc1ccccc1CNc1ccccc1C |
| 1.29 | CCOC(=O)c1cnc2c(c(C)nn2C)c1Oc1ccc(Cl)cc1 |
| 0.64 | Cc1ccc(C(=O)c2cnc3ccccc3c2-c2ccccc2)cc1 |
| 1.03 | COC(=O)c1ccc(-c2ccco2)n1Cc1ccccc1Cl |
| 2.45 | CC(=O)N1c2ccccc2C(C)(c2ccccc2)CC1(C)C (configuration not stated) |
| 1.52 | COc1ccc2c(C)cc(SCC(=O)Nc3ncc(Cl)cc3Cl)nc2c1 |
| 1.06 | S=c1[nH]nc(-c2ccco2)n1/N=C/c1ccc(Cl)cc1Cl |
| 1.37 | CCC1(C)Cc2ccccc2-c2nc3n(c(=O)c21)CCS3 (configuration not stated) |
| 1.07 | Cc1ccc(O)c(N=Cc2cc(Cc3ccccc3)cc([N+](=O)[O-])c2O)c1 |
| 0.31 | CCOC(=O)C1=NN(c2ccc(C)cc2)C2(S1)SC(C(C)=O)=C(C)N2c1ccccc1 (configuration not stated) |
| 1.19 | CCN(CC)P(=O)(Nc1ccccc1Br)c1ccc(N(C)C)cc1NC(=O)c1ccco1 (configuration not stated) |
| 2.37 | Cc1oc(-c2ccccc2)cc1C(=O)Nc1cccc(/C=C/C(=O)O)c1 |
| 1.3 | Cc1noc(C)c1CSc1nc2ccccc2c(=O)n1-c1ccccc1 |
| 1.09 | CCn1c(COc2ccc(Cl)cc2)nnc1SCC(=O)Nc1ccc2c(c1)OCO2 |
| 1.47 | CCCCOc1cc(C)nc(NCc2ccccc2)n1 |

| PGE2 EC50 with compound [nM] | Structure (SMILES) |
| --- | --- |
| 0.78 | N#Cc1sc2nc(C3CC3)cc(-c3ccccc3)c2c1N |
| 3.33 | Cc1cc(C(=O)CSc2nc3ccccc3c(=O)n2C)c(C)n1Cc1ccc2c(c1)OCO2 |
| 1.04 | CCOP(=O)(OCC)c1nc(-c2ccccc2)oc1NCc1ccccc1 |
| 1.01 | CC(C)Oc1nc(-c2ccccc2O)nc2ccccc12 |
| 1.13 | CCOC(=O)c1ccccc1NC1c2ccccc2C(=O)N1c1cc(C)ccn1 (configuration not stated) |
| 2.64 | Cn1c(=O)[nH]c(=O)c2c1nc(N1CCCCCC1)n2Cc1cccc2ccccc12 |
| 0.55 | Cc1cc(O)ccc1C1(c2ccc(O)cc2C)OC(=O)c2ccccc21 |
| 0.71 | Cc1cccc(Cn2c(Cc3ccccc3)nc3ccccc32)c1 |
| 0.73 | CCOC(=O)c1cc(C)sc1NC(=O)c1ccc(Cl)s1 |
| 0.77 | O=c1c2cn[nH]c2nc(SCc2ccccc2F)n1-c1ccc(Br)cc1 |
| 0.66 | Cc1ccc(C(=O)Nc2ccccc2N2CCCCC2)cc1[N+](=O)[O-] |
| 0.55 | COc1ccccc1NC(=O)CSc1nnc(Cn2nnc(-c3ccccc3)n2)n1-c1ccccc1 |
| 0.73 | Cc1ccn2c(Nc3ccccc3C)c(-c3ccccn3)nc2c1 |
| 1.37 | CCOC(=O)c1sc(NC(=O)CN2C(=O)c3cccc4cccc(c34)C2=O)nc1C |
| 1.09 | Cc1sc(NC(=O)c2ccccc2F)c(CN2CCCCC2)c1C |
| 1.28 | C=C(C)Cn1c(C)cc(C)c(S(=O)(=O)c2cccc(C)c2)c1=O |
| 1.24 | Cc1cc2ccccn2c1C(=O)c1ccc(Cl)cc1 |
| 0.63 | Cc1cccc(OCC(=O)Nc2ccccc2-c2ccccc2)c1 |
| 0.33 | Cc1ccccc1C(=N)c1ccccc1Cc1cccc2ccccc12 |
| 1.08 | CCCCn1c(C)cc(C)c(S(=O)(=O)c2ccccc2C)c1=O |
